{"source": "patent US9265774B2", "about": "“Methods, compounds and pharmaceutical compositions for treating anxiety and mood disorders” (New York University, priority 2011, dated 2016)", "key": {"[1]": {"tested_on": "repeated open-space swim model", "assay": "Repeated open-space (forced) swim test", "type": "in vivo, mice", "conditions": "acute i.p., dp6FNE at 1, 3 and 10 mg/kg given along with phentolamine 5 mg/kg i.p.", "source_text": "The first test involves an acute stress-induced model of depression (Steru, et al., Psychopharmacology 1985; 85: 367-370) whereas the second, a more prolonged, chronic depression that is more akin to chronic human depression (Stone, et al., Pharmacol Biochem Behav 2008; 91: 190-195)."}, "[2]": {"tested_on": "CMS reduction of intake of sweetened milk", "assay": "Chronic mild stress (CMS)-anhedonia model, consumption of sweetened milk", "type": "in vivo", "conditions": "acute i.p. dp6FNE"}, "[3]": {"tested_on": "Fos expression in the PVH", "assay": "Fos expression in the PVH in the tail suspension test", "type": "in vivo, mice", "conditions": "dp6FNE 3 mg/kg i.p. before a 6 min tail suspension test, with prazosin 0.2 mg/kg", "procedure": "(§1) In the RFS study, mice were subjected to 4 daily 15 min swims as described above and were injected i.p. with either vehicle or dp6FNE (3 mg/kg) 15 min prior to the 5th swim. In the TST study, animals were injected similarly before a 6 min test. […] The animals were anesthetized and perfused for immuno-histochemistry 70 min after the start of the swim or tail suspension. Brains were processed as described previously for double-label immunofluorescent Fos/tyrosine hydroxylase staining of all sections through the LC and for single-label Fos staining through the full PVH (Stone et al., Brain Res (2009) 1291: 21-31). […] In the tail suspended mice the analogous reductions were 53.5±7.2% (LC) and 36.7±3.1 (PVH). […] These findings thus indicate that a dose of […] dp6FNE that has preferential inhibitory effects on the LC during depression exists."}, "[4]": {"tested_on": "Fos expression in the LC", "assay": "Fos expression in the LC during the RFS model", "type": "in vivo, mice", "conditions": "dp6FNE 3 mg/kg i.p. 15 min prior to the 5th swim, with prazosin 0.2 mg/kg; swum animals, versus vehicle", "procedure": "as §1"}, "[5]": {"tested_on": "home cage exploration in handling-stressed mice", "assay": "Home cage activity after handling and injection stress", "type": "in vivo", "conditions": "i.p.; dp6FNE (1 mg/kg) in the presence of phentolamine; cirazoline (0.1 mg/kg)", "procedure": "FIG. 15 depicts the effect of acute i.p. dp6FNE (1 mg/kg) or cirazoline (0.1 mg/kg), (N=1), on home cage activity in terms of rearing and ambulation, Veh (N=12).\n6FNE has a more rapid and/or greater antidepressant effect than either of these agonists because 6FNE is the only known selective α-agonist that has full efficacy at all brain α-adrenoceptors and 6FNE works within minutes (Stone, et al. 2011) whereas cirazoline was given to mice over several months prior to testing in one model (forced swim test) in the above experiment by Doze et al, 2009. […] (Stone, E A, Lin Y, Quartermain, D, Unpublished results)\nIt is known that peripheral administration of α1-agonists without phentolamine impairs exploratory behavior in the open field (Yang, et al., J Pharmacol exp Ther 1990; 255: 1064-1070)."}, "[6]": {"tested_on": "Fos expression in the LC", "assay": "Fos expression in the LC in the tail suspension test", "type": "in vivo, mice", "conditions": "dp6FNE 3 mg/kg i.p. before a 6 min tail suspension test, with prazosin 0.2 mg/kg", "procedure": "as §1"}, "[7]": {"tested_on": "Fos expression in the PVH", "assay": "Fos expression in the PVH during the RFS model", "type": "in vivo, mice", "conditions": "dp6FNE 3 mg/kg i.p. 15 min prior to the 5th swim, with prazosin 0.2 mg/kg; swum animals, versus vehicle", "procedure": "as §1"}, "[8]": {"tested_on": "model of chronic depression in mice (repeated forced swim)", "source_text": "We administered the pro-drugs shortly before one or more tests of antidepressant activity including reversal of immobility during tail suspension and forced swimming and attenuation of anhedonia produced by endotoxin administration. […] (Stone et al., Eur. J. Pharmacol. (2001) 420: 97-102) Because dp6FNE like all other antidepressants has an initial anorexic effect and acutely reduces the consumption of sweet solutions, in the test for anhedonia it was necessary to employ a non-nutritive hedonic behavior, FUST (sniffing of estrous female urine). […] (Stone et al., Neuropsychopharmacology (2011) 14: 319-331); Sun et al., J. Neurosci. Methods (2003) 126:35-40; Sun et al., Behavioral Pharmacology (2008) 19: 334-338).\nMice were swum for 15 min/d on 4 d and tested for the response to acute i.p dp6FNE (1 or 3 mg/kg) alone or in combination with 8-OHDPAT (0.05 mg/kg) and corticosterone (3 mg/kg) on the 5th and final swim (15 min after drug administration). […] Comparison groups receiving currently available antidepressants were treated acutely i.p. or chronically (14 d osmotic pumps) with either desmethylimipramine (DMI) (10 mg/kg), fluoxetine (5 mg/kg), escitalopram (5 mg/kg), bupropion (10 mg/kg) or ketamine (10 mg/kg).\nAlthough corticosteroids are well known to produce depression (Gourley et al., Biol Psychiatry (2008) 64: 884-890), this occurs at high doses only. […] Mice were swum for 3 d and given either vehicle (0.8% ethanol) or corticosterone (12.5 μg/ml) in their drinking water.\nAs described in Example 4a, the cocktail was tested in a mouse model of chronic depression (RFS)."}, "[9]": {"tested_on": "locomotor behavior in an open field", "assay": "Open field locomotor behavior after ivt. 6FNE or i.p. dp6FNE versus amphetamine", "type": "in vivo, mice", "conditions": "6FNE ivt. or dp6FNE i.p.", "procedure": "6FNE and dp6FNe were tested for their effects on motor activity by measuring locomotor behavior in an open field after either ivt. (6FNE) or i.p. injection (dp6fNE) in mice. These mice were compared to animals that were either non handled or received either a vehicle ivt injection or an i.p. injection of the stimulant, amphetamine (5 mg/kg). The results are shown in FIG. 6 and in (Stone, Lin Y, Sarfraz Y, and Quartermain D, 2011). […] Furthermore, the increase in activity after 6FNE was minor in comparison with the bona fide stimulant, amphetamine which produced a 10 fold increase. The small increase over the vehicle group therefore appears to be the result of a reduction of the stress caused by the handling and restraint for the ivt. injection which is in agreement with the reduced activation of brain stress circuits discussed above. This interpretation was supported by an examination of the time in the center or risky area of the field spent by the various groups. […] A slight reduction in motor behavior at the low doses (0.1-0.3 mg/kg) were, however, observed."}, "[10]": {"conditions": "prazosin: at 0.2 mg/kg in mice; cited from earlier work"}}, "data": [{"smiles": "CC(C)(C)C(=O)Oc1cc(F)c(C(O)CN)cc1OC(=O)C(C)(C)C", "note": "(centres unmarked) [dp6FNE, dipivalyl-6-fluoronorepinephrine]", "values": [{"measurement": "acute effect in the repeated open-space swim test", "setting": "[1]", "value": "strong effect"}, {"measurement": "acute effect in the repeated open-space swim test", "setting": "[1]; listed as 6dpFNE", "value": "significant antidepressant action"}, {"measurement": "effect on CMS reduction of sweetened milk intake", "setting": "[2]", "value": "eliminates the CMS reduction of intake"}, {"measurement": "effect on food intake (hypophagia)", "setting": "[2]", "value": "significant hypophagia"}, {"measurement": "reduction in gene expression (Fos) in the PVH", "setting": "[3]", "value": "36.7±3.1"}, {"measurement": "reduction in gene expression (Fos) in the LC", "setting": "[4]", "value": "33.6±6.8"}, {"measurement": "behavioral inhibition in the home cage following handling and injection stress", "setting": "[5]", "value": "rescue of home cage exploration"}, {"measurement": "reduction in gene expression (Fos) in the LC", "setting": "[6]", "value": "53.5±7.2", "unit": "%"}, {"measurement": "reduction in gene expression (Fos) in the PVH", "setting": "[7]", "value": "13.0±20.1", "unit": "%"}, {"measurement": "persistence of anti-immobility effect", "setting": "[8]; dp6FNE 0.5 mg/kg, i.p., repeated daily", "value": "at least 11 daily treatments"}, {"measurement": "increase of distance swum", "setting": "[8]; dp6FNE 1 mg/kg acute i.p., 15 min before 5th swim, with prazosin 0.2 mg/kg", "value": "+77.5±5.2%"}, {"measurement": "decrease of immobility, maximum effect", "setting": "[8]; dp6FNE 3 mg/kg acute i.p., 15 min before 5th swim, with prazosin 0.2 mg/kg", "value": "−39.4±16.6", "unit": "%"}, {"measurement": "signs of toxicity (reduced arousal, disheveled fur coat) after repeated treatment", "setting": "[8]; repeated daily treatment, no formal measures", "value": "no obvious signs of toxicity"}, {"measurement": "effect of oral administration on immobility", "setting": "[8]; tube fed with prazosin 0.2 mg/kg, 45 min prior to the 5th swim", "value": "dose-dependent reduction in immobility"}, {"measurement": "effect on motor activity in the open field", "setting": "[9]", "value": "did not produce any stimulation of motor behavior"}, {"measurement": "time in the center of the field", "setting": "[9]", "value": "significant increase in the time in the center of the field"}, {"measurement": "passage of the blood brain barrier", "setting": "[10]", "value": "does pass the blood brain barrier"}]}]}
